This passage reports IC50 results from ChEMBL document CHEMBL1158935, “New Polyhydroxy Sterols, Dysidamides, and a Dideoxyhexose from the Sponge Dysidea herbacea” (J Nat Prod, 1991).

For this experiment, the system named is P388. Nature of the experiment: Cytotoxicity against mouse P388 cells. The experiment is classed as functional, cell-based.

In brackets after ≈: the same amount, converted by molar mass.

Usually IC50 stands for the concentration that inhibits the measured activity by half. A lower IC50 goes with higher potency. For `C=C(CC[C@@H](C)[C@H]1CC[C@H]2C3=C[C@@H](OC(C)=O)[C@@]4(O)C[C@@H](OC(C)=O)CC[C@]4(C)[C@@]3(O)[C@H](OC(C)=O)C[C@]12C)C(C)C`, the half-inhibitory concentration (IC50) turned out to be 6.5 µg/mL (≈ 11 µM).

In the case of `C=C(CC[C@@H](C)[C@H]1CC[C@H]2C3=C[C@@H](OC(C)=O)[C@@]4(O)C[C@@H](OC(C)=O)CC[C@]4(C)[C@H]3CC[C@]12C)C(C)C`, the IC50 was determined as 1.46 µg/mL (≈ 2.84 µM).

In turn, `C=C(CC[C@@H](C)[C@H]1CC[C@H]2C3=C[C@H](OC(C)=O)[C@@]4(O)C[C@@H](OC(C)=O)CC[C@]4(C)[C@@]3(O)[C@H](OC(C)=O)C[C@]12C)C(C)C` showed an IC50 of 4.78 µg/mL (≈ 8.12 µM).
